Data on one compound can be found in patent US20110104055A1, “SUBSTITUTED N-ARYL BENZAMIDES AND RELATED COMPOUNDS FOR TREATMENT OF AMYLOID DISEASES AND SYNUCLEINOPATHIES” (priority 2002, published 2011).

Type in all cases: biochemical
The target of assay [1] is T1, IAPP fibrils (Homo sapiens, UniProt P10997).
T1 construct: purchased Bachem Inc
T1 sequence (P10997 34-70 limits assumed): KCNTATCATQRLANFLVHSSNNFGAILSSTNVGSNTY
The assay is described as follows: Congo red binding assay, IAPP fibrils. Conditions: 3-day incubation. How it is done: In the Congo red binding assay the ability of a given test compound to alter amyloid (Aβ 1-42 fibrils, IAPP fibrils or NAC fibrils) binding to Congo red was quantified. In this assay, Aβ 1-42 fibrils, IAPP fibril or NAC fibrils and test compounds were incubated for 3 days and then vacuum filtered through a 0.2 μm filter. The amount of Aβ 1-42 fibrils, IAPP fibrils or NAC fibrils retained in the filter was then quantitated following staining of the filter with Congo red. After appropriate washing of the filter, any lowering of the Congo red color on the filter in the presence of the test compound (compared to the Congo red staining of the amyloid protein in the absence of the test compound) was indicative of the test compound's ability to diminish/alter the amount of aggregated and congophilic Aβ 1-42 fibrils, IAPP fibrils or NAC fibrils.
In the Congo red binding assay the ability of a test compound to alter amyloid (in this case, IAPP) binding to Congo red is quantified. In this assay, IAPP and test compounds were incubated for 3 days and then vacuum filtered through a 0.2 μm filter. The amount of IAPP retained in the filter was then quantified following staining of the filter with Congo red. After appropriate washing of the filter, any lowering of the Congo red color on the filter in the presence of the test compound (compared to the Congo red staining of the amyloid protein in the absence of the test compound) was indicative of the test compound's ability to diminish/alter the amount of aggregated and congophilic IAPP.
In one study, the ability of IAPP fibrils to bind Congo red in the absence or presence of increasing amounts of the compounds or EDTA (at IAPP:test compound weight ratios of 1:0.001, 1:0.01, 1:0.1 and 1:1) was determined.

The target in assay [2] is T2, Aβ 1-42 fibrils (Homo sapiens, UniProt P05067).
T2 construct: purchased Bachem Inc
T2 sequence (P05067 672-713): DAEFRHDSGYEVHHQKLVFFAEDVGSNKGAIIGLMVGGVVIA
The assay is described as follows: Thioflavin T fluorometry, disruption of pre-formed Aβ 1-42 fibrils (Example 6). Conditions: 3 days; for % inhibition of Aβ (Thioflavin T fluorometry): 25 μM pre-fibrillized Aβ 1-42, 37° C. The protocol:
The biological activity of the compounds provided herein as disruptors/inhibitors of Alzheimer's disease β-amyloid protein (Aβ) fibrils, type 2 diabetes IAPP fibrils and Parkinson's disease NAC fibrils was assessed by determining the efficacy of the compounds to cause a disassembly/disruption of pre-formed amyloid fibrils of Alzheimer's disease (i.e. consisting of Aβ 1-42 fibrils), IAPP fibrils and Parkinson's disease NAC fibrils. In one study, Thioflavin T fluorometry was used to determine the effects of the compounds, and of EDTA (as a negative control). In this assay Thioflavin T binds specifically to fibrillar amyloid, and this binding produces a fluorescence enhancement at 485 nm that is directly proportional to the amount of fibrils present. The higher the fluorescence, the greater the amount of fibrils present (Naki et al, Lab. Invest. 65:104-110, 1991; Levine III, Protein Sci. 2:404-410, 1993; Amyloid: Int. J. Exp. Clin. Invest. 2:1-6, 1995). The disruption of Aβ 1-42, even in its monomeric form, was confirmed by a study involving the use of SDS-PAGE and Western blotting methods.
(§1) In one study, Thioflavin T fluorometry was used to determine the effects of the compounds, and of EDTA (as a negative control). In this assay Thioflavin T binds specifically to fibrillar amyloid, and this binding produces a fluorescence enhancement at 485 nm that is directly proportional to the amount of amyloid fibrils formed. The higher the fluorescence, the greater the amount of amyloid fibrils formed (Naki et al., Lab. Invest. 65:104-110, 1991; Levine III, Protein Sci. 2:404-410, 1993; Amyloid: Int. J. Exp. Clin. Invest. 2:1-6, 1995).
Following 3 days of co-incubation, 50 μl of each incubation mixture was transferred into a 96-well microtiter plate containing 150 μl of distilled water and 50 μl of a Thioflavin T solution (i.e. 500 mM Thioflavin T in 250 mM phosphate buffer, pH 6.8). The fluorescence was read at 485 nm (444 nm excitation wavelength) using an ELISA plate fluorometer after subtraction with buffer alone or compound alone, as blank).

Assay [3] concerns the target T2, Aβ 1-42 fibrils. The assay is described as follows: Thioflavin T fluorometry, disruption of pre-formed Aβ 1-42 fibrils (Example 11). As to conditions: 3 days; for % Inhibition Aβ (result ± S.D.), Thioflavin T fluorometry: 30 μg pre-fibrillized Aβ 1-42, 37° C.
From the text: as §1
Following 3-days of co-incubation, 50 μl of each incubation mixture was transferred into a 96-well microtiter plate containing 150 μl of distilled water and 50 μl of a Thioflavin T solution (i.e. 500 mM Thioflavin T in 250 mM phosphate buffer, pH 6.8). The fluorescence was read at 485 nm (444 nm excitation wavelength) using an ELISA plate fluorometer after subtraction with buffer alone or compound alone, as blank.

For assay [4], the target named is T3, α-synuclein fibrils (Homo sapiens, UniProt P37840).
T3 construct: purchased rPeptide
The assay is described as follows: Congo red binding assay, α-synuclein fibrils (Example 12). Conditions: 3-day incubation. The protocol: In the Congo red binding assay, the ability of a given test compound to alter amyloid (in this case, α-synuclein) binding to Congo red is quantified. In this assay, α-synuclein and test compounds were incubated for 3 days and then vacuum filtered through a 0.2 μm filter. The amount of α-synuclein retained in the filter was then quantitated following staining of the filter with Congo red. After appropriate washing of the filter, any lowering of the Congo red color on the filter in the presence of the test compound (compared to the Congo red staining of the amyloid protein in the absence of the test compound) was indicative of the test compound's ability to diminish/alter the amount of aggregated and congophilic α-synuclein.
In one study, the ability of α-synuclein fibrils to bind Congo red in the absence or presence of increasing amounts of compounds DC-0051-F1, F2, F3, F4, F5, F6 and EDTA (at α-synuclein:test compound weight ratios of 1:1, 1:0.1, 1:0.01 or 1:0.001) was determined.

Where [5] appears, read: Aβ:test compound wt/wt ratio 1:0.01.
[6] abbreviates: Aβ:test compound wt/wt ratio 1:1.
[7] abbreviates: Thioflavin T fluorometry, all concentrations tested.

With `O=C(O)CN(CCN(CC(=O)O)CC(=O)O)CC(=O)O` [EDTA], in assay [1], the “inhibition of IAPP fibril binding to Congo red, in words” value is reported as “no significant inhibition”. The “% inhibition of IAPP (Congo red binding)” value in assay [1] (IAPP:test compound wt/wt ratio 1:0.001) is 0.0 ± 1.82%; in assay [1] (IAPP:test compound wt/wt ratio 1:0.01), 0.0 +/− 1.65%; in assay [1] (IAPP:test compound wt/wt ratio 1:0.1), 0.0 +/− 2.40%; in assay [1] (IAPP:test compound wt/wt ratio 1:1) it was 13.9 +/− 4.71%. The “% inhibition of Aβ (Thioflavin T fluorometry)” value in assay [2] (setting [5]) is 0.2 ± 3.03%; in assay [2] (setting [6]), 0.0 ± 3.59%. Besides, the entries for the “disruption/disassembly of preformed Aβ 1-42 fibrils, in words” value in assay [2] (setting [7]) and in assay [3] (setting [7]) were “no significant inhibition/disruption” and “no significant inhibition”, respectively. Further, the “% Inhibition Aβ (result ± S.D.), Thioflavin T fluorometry” value in assay [3] (Aβ:test compound wt/wt ratio 1:0.001) is on record as 0.0 ± 1.70%; in assay [3] (setting [5]), 2.4 ± 2.86%; in assay [3] (Aβ:test compound wt/wt ratio 1:0.1) it was 0.0 ± 6.02%; in assay [3] (setting [6]) it was 0.0 ± 3.46%. For the same compound, the “inhibition of α-synuclein fibril binding to Congo red, in words” value in assay [4] (all concentrations tested) is on record as “no significant inhibition”. Besides, the “% Inhibition α-synuclein (result ± S.D.), Congo red binding” value came out at 3.3 ± 1.85% in assay [4] (α-synuclein:test compound wt/wt ratio 1:0.001), 2.9 ± 5.0% in assay [4] (α-synuclein:test compound wt/wt ratio 1:0.01), 2.2 ± 5.16% in assay [4] (α-synuclein:test compound wt/wt ratio 1:0.1) and 0.0 ± 5.50% in assay [4] (α-synuclein:test compound wt/wt ratio 1:1).
